Experimental findings from PMC6085820 (Molecular Biology of the Cell, 2018) are described below.

Each structure is given as a SMILES string.

The target in this experiment is T1, Mtq2:Trm112 (Saccharomyces cerevisiae, UniProt Q03920).
T1 sequence (Q03920 1-221): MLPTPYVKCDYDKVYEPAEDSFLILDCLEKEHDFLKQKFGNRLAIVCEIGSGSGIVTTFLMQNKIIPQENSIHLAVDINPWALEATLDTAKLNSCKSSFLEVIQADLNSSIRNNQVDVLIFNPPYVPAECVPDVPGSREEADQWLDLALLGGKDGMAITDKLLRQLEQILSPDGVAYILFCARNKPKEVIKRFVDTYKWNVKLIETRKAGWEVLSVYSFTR
T1 sequence (P53738 1-135 partner): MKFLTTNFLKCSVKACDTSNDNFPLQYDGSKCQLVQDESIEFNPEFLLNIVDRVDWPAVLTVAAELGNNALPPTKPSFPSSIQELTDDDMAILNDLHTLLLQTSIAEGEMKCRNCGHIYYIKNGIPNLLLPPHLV
Nature of the experiment: MTase-Glo coupled luminescence assay. In kind it is biochemical. As to conditions: SAM as methyl donor.

As for `C[As](O)O` [MAs(III), methyl arsenite], the “MTase-Glo coupled luminescence assay (SAH formation)” value (100 µM MAs(III)) is “methyltransferase activity was SAM-dependent and additionally capable of using MAs(III) as a substrate”.
With `O[As](O)O` [As(III), sodium arsenite], the “MTase-Glo coupled luminescence assay (SAH formation)” value (100 µM As(III)) is given as “SAM-dependent methyltransferase activity of Mtq2:Trm112 using As(III) as substrate was measured”.
